According to patent US8192962B2, “Processes for detecting toxic substances” (Daikin Industries, Ltd., priority 2001, dated 2012):

System: Detoxification protein genes
Experiment: DNA chip mRNA expression in yeast, detoxification protein genes (Table 8)
Format: cell-based, Saccharomyces cerevisiae S288C
In short: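 Ratios compare mRNA levels in stressed and control S. cerevisiae. Each toxicant was applied for two hours to log-phase cultures at 25° C. at a sub-lethal, growth-inhibiting level; fluorescent cDNA (Cy3- or Cy5-dUTP) was hybridized to a genome-wide yeast chip for over 12 h at 65° C.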

Measured: The level of expressed mRNA in the presence of chemical substance/The level of expressed mRNA in the absence of chemical substance

COc1cc(CNC(=O)CCCCC=CC(C)C)ccc1O [(12), 8-methyl-N-vanillyl-6-nonenamide]
1.5: yeast gene YCL035C | yeast gene YDL100C | yeast gene YNL239W
2.0: yeast gene YHL040C | yeast gene YNL241C
0.6: yeast gene YDL168W | yeast gene YGR138C | yeast gene YGR224W | yeast gene YOR247W
1.1: yeast gene YCR083W | yeast gene YER185W | yeast gene YGR088W | yeast gene YHR053C | yeast gene YIR038C | yeast gene YLL060C
1.2: yeast gene YGL254W | yeast gene YGR197C | yeast gene YHR055C
1.7: yeast gene YBL064C | yeast gene YEL065W
0.8: yeast gene YBR008C | yeast gene YDR256C | yeast gene YKR105C | yeast gene YKR106W | yeast gene YLR043C | yeast gene YLR046C | yeast gene YOR031W | yeast gene YOR273C
1.6: yeast gene YML028W
0.7: yeast gene YDR538W | yeast gene YHR008C | yeast gene YJL101C | yeast gene YKL064W | yeast gene YLL057C | yeast gene YNL259C
2.6: yeast gene YHL047C
4.0: yeast gene YOR153W
0.4: yeast gene YPR200C
0.5: yeast gene YBR244W | yeast gene YML116W
1.3: yeast gene YIR002C | yeast gene YLL028W
1.0: yeast gene YBR145W | yeast gene YBR293W | yeast gene YGL013C | yeast gene YKL026C
0.9: yeast gene YCL069W | yeast gene YDR453C | yeast gene YDR513W | yeast gene YEL027W | yeast gene YFL050C | yeast gene YGR209C | yeast gene YHR048W | yeast gene YJR104C | yeast gene YKR066C | yeast gene YMR015C | yeast gene YMR038C | yeast gene YOL158C | yeast gene YOR251C | yeast gene YPL163C
